The results in this text go back to US20230302160A1, “TUMOR CONTRAST COMPOUND, PREPARATION METHOD THEREFOR AND APPLICATION THEREOF IN TUMOR DIAGNOSTIC IMAGING” (Ningbo Haibo Biotechnology Co., Ltd, priority 2020, published 2023).

Data set [1] in a line: Fluorescence quenching effect after mixing with surfactin in different ratios (fluorescence imager, ROI). It counts as physicochemical. The note with it: compound 20 μM with surfactin. The protocol:
The test solution was shaken for 5 min and added to a black 96-well plate with 50 ul of test solution per experimental well. Then a fluorescence imager was used for imaging. The photos were taken under Ex=745 nm, Em=820 nm. The ROI (Region of Interest) value for each well was quantitatively calculated.

Data set [2] in a line: Fluorescence emission spectroscopy test after mixing with surfactin in different ratios. It counts as physicochemical. To be noted: for fluorescence quenching in aqueous solution under the action of surfactin compared with methanol solution (emission spectra): compound 20 μM, Ex=730 nm, Em=760-960 nm, ratio 1:5 stated for Compounds 1-3; for fluorescence quenching effect when the amount of surfactin was reduced: compound:surfactin from 1:5 to 1:1, 1:0.2.
Description: Surfactin in different concentrations was added to the aqueous solution of the corresponding compound (final concentration of 20 μM), and the molar ratio of the compound to be tested to surfactin was 1:5, 1:1, 1:0.2. A methanol solution of the corresponding compound (final concentration of 20 μM) was used as a positive control. The test solution was shaken for 5 minutes and its fluorescence emission spectra (Ex=730 nm, Em=760-960 nm) were detected using a fluorescence spectrophotometer.

The subject of data set [3] is human renal cancer cell line A498. The data set is described as follows: Fluorescence localization imaging in human renal cancer cell line A498. To be noted: same method as Example 2; for intracellular localization: A498 cells. It counts as cell-based. On the procedure:
786o cells (3×10^5/well) were seeded in a 6-well plate in advance and placed in a cell culture incubator for 48 h. After the culture medium was blotted, a culture medium comprising the corresponding compound (5 μM) and Mito-tracker (0.2 nM) was added to the experimental well, incubated for 30 min, cleaned three times with PBS solution, and imaged using a fluorescence microscope equipped with an infrared camera and a continuous LED light source. The near-infrared photos were taken under Ex=745 nm, Em=820 nm; the Mito-tracker photos were taken under Ex=488 nm and Em=520 nm.
The same method as Example 2 was employed except that the human renal cancer cell line A498 was used to detect the localization of Compounds 4, 5 within the cell.

The subject of data set [4] is diseased colonic tissue in a mouse primary bowel cancer tumor model (APCmin/+). The data set is described as follows: Near-infrared imaging of diseased colon tissue immersed in compound/surfactin mixture, primary bowel cancer model. To be noted: for recognition of tumor lesions: mixture with surfactin 1:5 (20 μM/100 μM), colon tissue immersed 12 min; for imaging ranking: mixture with surfactin 1:5, colon tissue immersed 12 min. The protocol: Establishment of the mouse primary bowel cancer tumor model of APCmin/+ mouse model: parent C57BL/6J-APC min/+ mice and C57BL/6J wt mice were caged and propagated. The genotype of the offspring was detected and the offspring C57BL/6J-APC min/+ mice (diseased mice) were screened. The offspring C57BL/6J-APC min/+ mice were killed at week 20. Mice were dissected and diseased colon tissue was taken. Colon was cut longitudinally for subsequent tests.
Compounds 1-8 were added to the aqueous solution of surfactin.
The diseased colon tissue of mice was immersed in the above fluid. A fluorescence imager was used for imaging after 12 min.

Data set [5] deals with tumor tissue in a mouse subcutaneous xenograft renal clear cell carcinoma tumor model (786o). The data set is described as follows: Near-infrared imaging of excised tumor tissue immersed in compound/surfactin solution, renal clear cell carcinoma model. To be noted: compound 20 μM, surfactin 100 μM (1:5), 786o xenograft tumor tissue immersed; for correlation between uptake by tumor tissues and immersion time: ROI. The protocol: (§1) Mice were dissected, and tumor tissues were taken.
Compounds 1-8 were added to the aqueous solution of surfactin. The final concentration of surfactin was 100 μM, and the final concentration of each compound was 20 μM (the molar ratio of the compound to surfactant was 1:5).
(§2) The tumor tissue was immersed in the above liquid.

The test system of data set [6] is tumor tissue in a mouse subcutaneous xenograft breast cancer tumor model. Nature of the data set: Near-infrared imaging of tumor tissue, breast cancer model. To be noted: compound:surfactin 1:5, breast cancer xenograft tumor tissue; for correlation between uptake by tumor tissues and immersion time: ROI.
Description: as §1, §2

The conditions of data set [7]: molar ratio 1:1. The protocol: Different surfactants were added to the aqueous solution of Compound 4 (final concentration of […]), and the molar ratio of the compound to be tested to surfactin was 1:1. In addition, a methanol solution of the compound (final concentration of 20 μM) was used as a positive control. The test solution was shaken for 5 minutes and its fluorescence emission spectra (Ex=730 nm, Em=760-960 nm) were detected using a fluorescence spectrophotometer.

Data set [8] has as its system organic anion transporting polypeptides (OATPs). The note with it: compound:surfactin 1:5, 1 mM sodium bromosulfophthalein (50 equivalent), renal clear cell carcinoma xenograft tumor tissue.
Description: Female nude mice around 5 weeks of age were ordered and subjected to subcutaneous renal clear cell cancer cell 786o inoculation after one week of barrier environmental adaptation at a specific position above the right lower limb (3×10^6/pce, suspended in 200 μl PBS solution). When the tumor volume reached 50-150 mm^3 (about 12-22 days), nude mice were randomly grouped with 3 mice in each experimental group. Mice were dissected, and tumor tissues were taken.
The tumor tissue was immersed in the above liquid. A fluorescence imager was used for imaging after a specified time.

Like-named read-outs stand apart in the source and are kept apart here.

Regarding `CC[N+]1=C(/C=C/C2=C(Cl)C(=C/C=C3/N(CCCCCC(=O)Oc4ccc(NC(=O)OC(C)(C)C)cc4)c4ccccc4C3(C)C)/CCC2)C(C)(C)c2ccccc21` [Compound 5], in data set [1], the “fluorescence quenching effect, comparison between compounds” value is “better than that of Compounds 1, 2 and 3”. In data set [2], the “fluorescence quenching in aqueous solution under the action of surfactin compared with methanol solution (emission spectra)” value is “obvious fluorescence quenching” and the “fluorescence quenching effect when the amount of surfactin was reduced” value is on record as “not significantly reduced”. Besides, in data set [3], the intracellular localization result is recorded as “enriched in mitochondria” and the “uptake by tumor cells” value was “uptaken by tumor cells”. For the same molecule, the “recognition of tumor lesions” value in data set [4] is listed as “high specific recognition”. Moreover, in data set [5], the “reason for near-infrared imaging of tumor tissues” value (“reason for near-infrared imaging” for short) is “targeted recognition of tumor tissue by the compounds”; the “uptake of the compound by tumor tissue (level)” value (“uptake of the compound” for short) is on record as “low uptake”; the “correlation between uptake by tumor tissues and immersion time” value (“correlation between uptake” for short) is on record as “a certain positive correlation”.

Consider `CC[N+]1=C(/C=C/C2=C(Cl)C(=C/C=C3/N(CCCCCC(=O)Nc4ccc(NC(=O)OC(C)(C)C)cc4)c4ccccc4C3(C)C)/CCC2)C(C)(C)c2ccccc21` [Compound 6], for which, in data set [2], the “fluorescence quenching in aqueous solution under the action of surfactin compared with methanol solution (emission spectra)” value is “obvious fluorescence quenching” and the “fluorescence quenching effect when the amount of surfactin was reduced” value is “not significantly reduced”. In data set [4], the “recognition of tumor lesions” value was “high specific recognition” and the imaging ranking result was “best imaged”. Further, in data set [6], the “uptake of the compound” value is listed as “higher”; the “correlation between uptake” value is given as “an obvious positive correlation”. Further, in data set [5], the “overall imaging of tumor tissue” value is listed as “optimal imaging of tumor tissue”; the “reason for near-infrared imaging” value is reported as “targeted recognition of tumor tissues by the compounds”; the “uptake of the compound” value was “high uptake”; the “correlation between uptake” value is “an obvious positive correlation”.

In the case of `CC[N+]1=C(/C=C/C2=C(Cl)C(=C/C=C3/N(CCCCCC(=O)Oc4ccccc4)c4ccccc4C3(C)C)/CCC2)C(C)(C)c2ccccc21` [Compound 4], the “fluorescence quenching effect, comparison between compounds” value in data set [1] is “better than that of Compounds 1, 2 and 3”. In addition, in data set [2], the “fluorescence quenching in aqueous solution under the action of surfactin compared with methanol solution (emission spectra)” value was “obvious fluorescence quenching” and the “fluorescence quenching effect when the amount of surfactin was reduced” value is recorded as “not significantly reduced”. Besides, in data set [3], the intracellular localization entry is reported as “enriched in mitochondria” and the “uptake by tumor cells” value is “uptaken by tumor cells”. Moreover, in data set [4], the “recognition of tumor lesions” value was “high specific recognition” and the imaging ranking entry is “best imaged”. The “fluorescence signal in aqueous solution after mixing” value (from here on “fluorescence signal”) in data set [7] (mixed with anionic surfactants (surfactin, sodium dodecyl sulfonate, sodium dodecyl benzene sulfonate)) was “substantially no fluorescence signal”. Besides, the “fluorescence signal” value in data set [7] (mixed with cationic surfactants (dodecyltrimethylammonium chloride, tetrabutylammonium iodide)) is listed as “still fluorescence signal”. Also, the “fluorescence signal” value in data set [7] (mixed with human serum albumin) is “still fluorescence signal”. Also, in data set [7] (mixed with nonionic surfactants (Kolliphor, P123)), the “fluorescence signal” value is listed as “still fluorescence signal”. Also, the “effect of excessive sodium bromosulfophthalein on uptake by tumor tissues” value in data set [8] was “effectively reduce the uptake”. Besides, in data set [6], the “uptake of the compound” value is “higher”; the “correlation between uptake” value is given as “an obvious positive correlation”. In data set [5], the “overall imaging of tumor tissue” value is reported as “optimal imaging of tumor tissue”; the “reason for near-infrared imaging” value is “targeted recognition of tumor tissues by the compounds”; the “uptake of the compound” value is “high uptake”; the “correlation between uptake” value is reported as “an obvious positive correlation”.

Turning to `CC1(C)C(/C=C/C2=C(Cl)C(=C/C=C3/N(CCCCCC(=O)O)c4ccccc4C3(C)C)/CCC2)=[N+](CCCCCC(=O)O)c2ccccc21` [Compound 1, reference compound], the “fluorescence quenching effect, comparison between compounds” value in data set [1] is “the worst”. For the same molecule, in data set [2], the “fluorescence quenching in aqueous solution under the action of surfactin compared with methanol solution (emission spectra)” value is “obvious fluorescence quenching” and the “fluorescence quenching effect when the amount of surfactin was reduced” value is recorded as “significantly reduced”. Further, the “recognition of tumor lesions” value in data set [4] was “had a recognition effect”. For the same molecule, in data set [5], the “reason for near-infrared imaging” value is on record as “non-specific adsorption of the compounds by tissues”; the “correlation between uptake” value is given as “no obvious positive correlation”.

In the case of `CCN1/C(=C/C=C2\CCCC(/C=C/C3=[N+](CC)c4ccccc4C3(C)C)=C2Cl)C(C)(C)c2ccccc21` [Compound 2, reference compound], in data set [2], the “fluorescence quenching in aqueous solution under the action of surfactin compared with methanol solution (emission spectra)” value is “obvious fluorescence quenching” and the “fluorescence quenching effect when the amount of surfactin was reduced” value is “significantly reduced”. In data set [4], the “recognition of tumor lesions” value is recorded as “had a recognition effect”. Moreover, in data set [5], the “reason for near-infrared imaging” value is “non-specific adsorption of the compounds by tissues”; the “correlation between uptake” value is recorded as “no obvious positive correlation”.

For the molecule `CC[N+]1=C(/C=C/C2=C(Cl)C(=C/C=C3/N(CCCCCC(=O)O)c4ccccc4C3(C)C)/CCC2)C(C)(C)c2ccccc21` [Compound 3, reference compound], in data set [2], the “fluorescence quenching in aqueous solution under the action of surfactin compared with methanol solution (emission spectra)” value is on record as “obvious fluorescence quenching” and the “fluorescence quenching effect when the amount of surfactin was reduced” value is recorded as “significantly reduced”. In addition, the “recognition of tumor lesions” value in data set [4] is on record as “had a recognition effect”. Further, in data set [5], the “reason for near-infrared imaging” value was “non-specific adsorption of the compounds by tissues”; the “correlation between uptake” value was “no obvious positive correlation”.
